Assay results from ChEMBL document CHEMBL1132400, “A combinatorial approach to the identification of dipeptide aldehyde inhibitors of beta-amyloid production” (J Med Chem, 1999).

Experiments:
Type in all cases: functional, cell-based
N9 [1] = assay: Compound was tested for the inhibition of 1-40 beta-Amyloid Production in N9 cell line expressing beta-APP (wascreated by transfecting the human cDNA encoding beta-APP 695) by using immunoprecipitation assay
N9 [2] = assay: Compound was tested for the inhibition of 1-42 beta-Amyloid Production in N9 cell line expressing beta-APP (wascreated by transfecting the human cDNA encoding beta-APP 695) by using immunoprecipitation assay
N9 [3] = assay: Compound was tested for the inhibition of beta-Amyloid Production in N9 cell line expressing beta-APP; details: Homo sapiens
N9 [4] = assay: Compound was tested for the inhibition of total beta-Amyloid Production in N9 cell line expressing beta-APP (wascreated by transfecting the human cDNA encoding beta-APP 695) by using enzyme-linked immunosorbent assay
N9 [5] = assay: Compound was tested for the inhibition of total beta-Amyloid Production in N9 cell line expressing beta-APP (wascreated by transfecting the human cDNA encoding beta-APP 695) by using immunoprecipitation assay

IC50 (N9 [1]): 22 µM
IC50 (N9 [2]): > 50 µM
IC50 (N9 [3]): 9.6 µM
IC50 (N9 [4]): 10 µM
IC50 (N9 [5]): 15 µM
Compound: CCC(C)[C@H](NC(=O)/C=C/c1cc(OC)cc(OC)c1)C(=O)N[C@H](C=O)CC(C)C (stereo not given in full)
